Assay results from patent US5061794A, “Cephalosporin derivatives, and antibacterial agents” (priority 1986, dated 1991).
In brackets after ≈: the same amount, converted by molar mass. Counter-ions that a name gives are not always drawn. Like-named read-outs stand apart in the source and are kept apart here.

Columns and labels:
[1] = system: Ps. aeruginosa AK 109; test: in vitro antibacterial activity, agar plate dilution method (MIC); assay type: cell-based, Pseudomonas aeruginosa; details: Pseudomonas aeruginosa, AK109, 16 h
Method in brief: (§1)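 Each organism, pre-grown overnight in Mueller Hinton broth, is inoculated at 10^6 CFU/ml onto Mueller Hinton agar series with increasing compound concentration; growth inhibition is scored after 16 h, 37° C., giving MIC (μg/ml).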

[2] = system: Ps. aeruginosa AKR17; test: as above; assay type: cell-based, Pseudomonas aeruginosa; details: Pseudomonas aeruginosa, 16 h; Ps. aeruginosa AKR17; 10^6 CFU/ml; read-out: Minimum Inhibitory Concentration (MIC)
Method in brief: as §1

[3] = system: Ps. aeruginosa IF03445; test: as above; assay type: cell-based, Pseudomonas aeruginosa; details: Pseudomonas aeruginosa, 10^6 CFU/ml
Method in brief: as §1

[4] = system: S. marcescens IAM 1184; test: as above; assay type: cell-based; details: Serratia marcescens, IAM1184, 16 h, read-out: Minimum Inhibitory Concentration (MIC)
Method in brief: as §1

[5] = system: E. coli NIHJ JC2; test: as above; assay type: cell-based; details: Escherichia coli
Method in brief: as §1

[6] = system: K. oxytoca GN10650; test: as above; assay type: cell-based; details: Klebsiella oxytoca, 10^6 CFU/ml
Method in brief: as §1

[7] = system: K. pneumoniae No. 42; test: as above; assay type: cell-based; details: Klebsiella pneumoniae, 10^6 CFU/ml
Method in brief: as §1

[8] = system: P. vulgaris HX-19; test: as above; assay type: cell-based; details: Proteus vulgaris, HX19, 16 h, P. vulgaris HX-19; 10^6 CFU/ml; read-out: Minimum Inhibitory Concentration (MIC)
Method in brief: as §1

[9] = system: E. cloacae 963; test: as above; assay type: cell-based; details: 10^6 CFU/ml
Method in brief: as §1

[10] = system: E. cloacae Nek 39; test: as above; assay type: cell-based; details: Enterobacter cloacae, NEK39, 16 h, 10^6 CFU/ml
Method in brief: as §1

[11] = system: E. coli GN5482; test: as above; assay type: cell-based; details: Escherichia coli
Method in brief: as §1

[12] = system: S. aureus 209P NIHJ-JC1; test: as above; assay type: cell-based; details: Staphylococcus aureus, 16 h
Method in brief: as §1

[13] = system: S. marcescens No. 16-2; test: as above; assay type: cell-based; details: Serratia marcescens, NO.162, 16 h
Method in brief: as §1

[14] = system: P. vulgaris No. 33; test: as above; assay type: cell-based; details: Proteus vulgaris, 10^6 CFU/ml
Method in brief: as §1

[15] = system: M. morganii GN5407; test: as above; assay type: cell-based; details: Morganella morganii, 10^6 CFU/ml
Method in brief: as §1

[16] = system: K. pneumoniae PCI-602; test: as above; assay type: cell-based; details: Klebsiella pneumoniae, PCI602, 16 h, 10^6 CFU/ml
Method in brief: as §1

[17] = system: Ps. cepacia 23; test: as above; assay type: cell-based, Pseudomonas cepacia; details: read-out: Minimum Inhibitory Concentration (MIC)
Method in brief: as §1

[18] = system: A. calcoaceticus No. 4; test: as above; assay type: cell-based, Acinetobacter calcoaceticus; details: Acinetobacter calcoaceticus, NO.4, 16 h, 10^6 CFU/ml
Method in brief: as §1

[19] = system: E. coli CSH(RE45); test: microbe, parasite or virus in culture; assay type: cell-based; details: Escherichia coli, 16 h, read-out: Minimum Inhibitory Concentration (MIC), *E. coli CSH(RE45), lactamase-producing strain; 10^6 CFU/ml
Method in brief: as §1

[20] = system: E. coli CSH2 (RK1); test: microbe, parasite or virus in culture; assay type: cell-based; details: Escherichia coli, 16 h, read-out: Minimum Inhibitory Concentration (MIC), *E. coli CSH2 (RK1), lactamase-producing strain; 10^6 CFU/ml
Method in brief: as §1

[21] = Ps. aeruginosa AK 109, 10^6 CFU/ml, read-out: Minimum Inhibitory Concentration (MIC)
[22] = 16 h, Ps. aeruginosa IF03445, read-out: Minimum Inhibitory Concentration (MIC)
[23] = S. marcescens IAM 1184, 10^6 CFU/ml
[24] = NIHJJC2, 16 h, read-out: Minimum Inhibitory Concentration (MIC), E. coli NIHJ JC2, 10^6 CFU/ml, 37° C.
[25] = 16 h, *K. oxytoca GN10650, lactamase-producing strain, read-out: Minimum Inhibitory Concentration (MIC)
[26] = 16 h, *K. pneumoniae No. 42, lactamase-producing strain, read-out: Minimum Inhibitory Concentration (MIC)
[27] = Enterobacter cloacae, 16 h, E. cloacae 963, read-out: Minimum Inhibitory Concentration (MIC)
[28] = *E. cloacae Nek 39, lactamase-producing strain, read-out: Minimum Inhibitory Concentration (MIC)
[29] = GN5482, 16 h, read-out: Minimum Inhibitory Concentration (MIC)
[30] = read-out: Minimum Inhibitory Concentration (MIC)
[31] = 16 h, *P. vulgaris No. 33, lactamase-producing strain, read-out: Minimum Inhibitory Concentration (MIC)
[32] = read-out: Minimum Inhibitory Concentration (MIC), K. pneumoniae PCI-602
[33] = A. calcoaceticus No. 4, read-out: Minimum Inhibitory Concentration (MIC)
[34] = IF03445, 16 h, read-out: Minimum Inhibitory Concentration (MIC), Ps. aeruginosa IF03445
[35] = GN10650, 16 h, read-out: Minimum Inhibitory Concentration (MIC), *K. oxytoca GN10650, lactamase-producing strain
[36] = NO.42, 16 h, read-out: Minimum Inhibitory Concentration (MIC), *K. pneumoniae No. 42, lactamase-producing strain
[37] = Enterobacter cloacae, 963, 16 h, read-out: Minimum Inhibitory Concentration (MIC), E. cloacae 963
[38] = read-out: Minimum Inhibitory Concentration (MIC), *E. cloacae Nek 39, lactamase-producing strain
[39] = GN5482, 16 h, read-out: Minimum Inhibitory Concentration (MIC), *E. coli GN5482, lactamase-producing strain, 10^6 CFU/ml
[40] = read-out: Minimum Inhibitory Concentration (MIC), *S. marcescens No. 16-2, lactamase-producing strain, 10^6 CFU/ml
[41] = NO.33, 16 h, read-out: Minimum Inhibitory Concentration (MIC), *P. vulgaris No. 33, lactamase-producing strain
[42] = GN5407, 16 h, read-out: Minimum Inhibitory Concentration (MIC), *M. morganii GN5407, lactamase-producing strain
[43] = Burkholderia cepacia, 16 h, Ps. cepacia 23, 10^6 CFU/ml
[44] = S. aureus 209P NIHJ-JC1, 10^6 CFU/ml, 37° C., 16 hours, read-out: Minimum Inhibitory Concentration (MIC)
[45] = *S. marcescens No. 16-2, lactamase-producing strain, 10^6 CFU/ml, read-out: Minimum Inhibitory Concentration (MIC)
[46] = K. pneumoniae PCI-602, read-out: Minimum Inhibitory Concentration (MIC)

SMILES | MIC [1, 21] [µg/mL] | MIC [2] [µg/mL] | MIC [3, 22] [µg/mL] | MIC [4, 23] [µg/mL] | MIC [5, 24] [µg/mL] | MIC [6, 25] [µg/mL] | MIC [7, 26] [µg/mL] | MIC [8] [µg/mL] | MIC [9, 27] [µg/mL] | MIC ([17]; Burkholderia cepacia, 23, 16 h) [µg/mL] | MIC [18, 33] [µg/mL] | MIC [19] [µg/mL] | MIC [20] [µg/mL] | MIC [6, 35] [µg/mL] | MIC [7, 36] [µg/mL] | MIC [9, 37] [µg/mL] | MIC [10, 38] [µg/mL] | MIC [14, 41] [µg/mL] | MIC [15, 42] [µg/mL] | MIC [16, 46] [µg/mL] | further results
CC(C)(O/N=C(\C(=O)N[C@@H]1C(=O)N2C(C(=O)O)=C(CSc3nnc(-c4ccccc4)s3)CS[C@H]12)c1csc(N)n1)C(=O)O [compound 6, disodium 7β-[2-(2-aminothiazol-4-yl)-(1-carboxylate-1-methylethoxyimino)acetamido]-3-(5-phenyl-1,3,4-thiadiazol-2-yl) thiomethyl-3-cephem-4carboxylate, reference compound] | 100 | > 100 | 50 | 1.56 | 3.12 | 6.25 | 6.25 | < 0.006 | 6.25 | 12.5 | 6.25 | 3.12 | 3.12 | – | – | – | – | – | – | – | MIC [10, 28]: 50 µg/mL; MIC [11, 29]: 3.12 µg/mL; MIC [12, 30]: 3.12 µg/mL; MIC [13, 30]: 12.5 µg/mL; MIC [14, 31]: 0.39 µg/mL; MIC ([15]; 16 h, *M. morganii GN5407, lactamase-producing strain, read-out: Minimum Inhibitory Concentration (MIC)): 6.25 µg/mL; MIC [16, 32]: 0.1 µg/mL
CO/N=C(\C(=O)N[C@@H]1C(=O)N2C(C(=O)O)=C(CSc3nnc(-c4ccc(O)c(O)c4)s3)CS[C@H]12)c1csc(N)n1 [Ex. 25, sodium 7β-[2-(2-aminothiazol-4-yl)-2-methoxviminoacetamido]-3-[5-(3,4-dihydroxyphenyl)-1,3,4-thiadiazol-2-yl]thiomethyl-3-cephem-4-carboxylate] | – | 100 | – | 0.0125 | 0.2 | – | – | < 0.006 | – | – | 0.2 | 0.025 | < 0.006 | 0.78 | 0.0125 | 0.025 | 0.39 | 0.025 | 0.025 | – | MIC ([1]; read-out: Minimum Inhibitory Concentration (MIC), Ps. aeruginosa AK 109, 10^6 CFU/ml): 0.78 µg/mL; MIC [3, 34]: 0.78 µg/mL; MIC [11, 39]: 0.78 µg/mL; MIC ([12]; read-out: Minimum Inhibitory Concentration (MIC), S. aureus 209P NIHJ-JC1, 10^6 CFU/ml, 37° C., 16 hours): 0.78 µg/mL; MIC [13, 40]: 1.56 µg/mL; MIC [16, 32]: < 0.006 µg/mL; MIC [17, 43]: < 0.006 µg/mL
CO/N=C(\C(=O)N[C@@H]1C(=O)N2C(C(=O)O)=C(CSc3nnc(-c4ccc(O)cc4)s3)CS[C@H]12)c1csc(N)n1 [compound 7, 7β-[2-(2-aminothiazol-4-yl)-2methoxyiminoacetamido]-3-[5-(4-hydroxyphenyl-1,3,4-thiadiazol-2-yl)thiomethyl-3-cephem-4-carboxylic acid trifluoroacetate, reference compound] | 25 | > 100 | 25 | 0.39 | – | 3.12 | 1.56 | < 0.006 | 1.56 | – | 1.56 | 0.2 | 0.2 | – | – | – | – | – | 0.78 | < 0.006 | MIC ([5]; NIHJJC2, E. coli NIHJ JC2, 10^6 CFU/ml, 37° C., 16 hours, read-out: Minimum Inhibitory Concentration (MIC)): 0.39 µg/mL; MIC [10, 28]: 3.12 µg/mL; MIC [11, 29]: 0.78 µg/mL; MIC [12, 44]: 0.39 µg/mL; MIC [13, 45]: 3.12 µg/mL; MIC [14, 31]: 1.56 µg/mL; MIC [17, 43]: 3.12 µg/mL
CO/N=C(\C(=O)N[C@@H]1C(=O)N2C(C(=O)O)=C(CSc3ncc(-c4ccccc4)o3)CS[C@H]12)c1csc(N)n1 [compound 21, sodium 7β-[2-(2-aminothiazol-4-yl)-2methoxyiminoacetamido]-3-(5-phenyloxazol-2-yl)thiomethyl-3-cephem-4-carboxylate, reference compound] | 50 | > 100 | 50 | – | 1.56 | – | – | 0.0125 | – | 0.78 | – | 1.56 | 0.78 | 12.5 | 3.12 | 3.12 | 6.25 | 0.78 | 1.56 | 0.0125 | MIC [4]: 0.78 µg/mL; MIC [11, 39]: 0.78 µg/mL; MIC [12, 30]: 0.39 µg/mL; MIC [13, 40]: 6.25 µg/mL; MIC ([18]; read-out: Minimum Inhibitory Concentration (MIC), A. calcoaceticus No. 4): 12.5 µg/mL
CC(C)(O/N=C(\C(=O)N[C@@H]1C(=O)N2C(C(=O)O)=C(CSc3nc(C(=O)O)c(-c4ccccc4)s3)CS[C@H]12)c1csc(N)n1)C(=O)O [compound 14, reference compound] | – | > 100 | – | 0.1 (≈ 0.142 µM) | 1.56 (≈ 2.21 µM) | – | – | < 0.006 | – | 0.78 (≈ 1.11 µM) | 50 (≈ 70.9 µM) | 1.56 (≈ 2.21 µM) | 1.56 (≈ 2.21 µM) | 1.56 (≈ 2.21 µM) | 1.56 (≈ 2.21 µM) | 1.56 (≈ 2.21 µM) | 12.5 (≈ 17.7 µM) | 0.025 (≈ 0.0355 µM) | 0.2 (≈ 0.284 µM) | 0.2 (≈ 0.284 µM) | MIC [1, 30]: 12.5 µg/mL (≈ 17.7 µM); MIC [3, 34]: 12.5 µg/mL (≈ 17.7 µM); MIC ([11]; 16 h, *E. coli GN5482, lactamase-producing strain, 10^6 CFU/ml, read-out: Minimum Inhibitory Concentration (MIC)): 3.12 µg/mL (≈ 4.43 µM); MIC [12, 44]: 50 µg/mL (≈ 70.9 µM); MIC [13, 45]: 25 µg/mL (≈ 35.5 µM)
